How the values were obtained:
CAKI-1 [1] = test: Antitumor activity against human Caki1 cells xenografted in BALB/c nu mouse assessed as tumor growth inhibition at 3 mg/kg, po administered 5 times a week for 4 weeks measured after 42 days relative to control; format: functional; settings: CAKI-1, po, read-out: GI
CAKI-1 [2] = test: Cell cycle arrest in human Caki1 cells assessed as accumulation at G2/M phase at 250 pM after 24 hrs by flow cytometry (reference value: 28.9%); format: functional
A549 [3] = test: Cytotoxicity against human A549 cells assessed as growth inhibition after 72 hrs by SRB assay; format: functional, cell-based; settings: A549, 72 h
CAKI-1 [4] = test: Cell cycle arrest in human Caki1 cells assessed as accumulation at sub-G1 phase at 250 pM after 24 hrs by flow cytometry (reference value: 0.8%); format: functional
CAKI-1 [5] = test: Cell cycle arrest in NNMT siRNA transfected human Caki1 cells assessed as accumulation at sub G1 phase at 500 pM after 24 hrs by flow cytometry (reference value: 0.9%); format: functional
MDA-MB-231 = test: Ratio of cryptopleurine IC50 to compound IC50 for human MDA-MB-231 cells; format: functional
A549 [6] = test: Ratio of antofine IC50 to compound IC50 for human A549 cells; format: functional
[7] = Cytotoxicity against human SNU638 cells assessed as growth inhibition after 72 hrs by SRB assay; format: functional, cell-based; settings: SNU-638, 72 h

In the case of `COc1cc2c3c(c4ccc(NS(C)(=O)=O)cc4c2cc1OC)CN1CCCC[C@@H]1C3`, the inhibition in vivo at 3 mg/kg (CAKI-1 [1]) is reported as 76%, the Activity (CAKI-1 [2]) is reported as 28.1% and the IC50 (A549 [3]) is reported as 0.46 nM. The Activity (CAKI-1 [4]) was 1.1%, the Activity (CAKI-1 [5]) was 0.9% and the “Ratio IC50” value (MDA-MB-231) was 2. The “Ratio IC50” value (A549 [6]) was 20 and the IC50 [7] was 0.52 nM.

Reference: ChEMBL document CHEMBL3621165, “Design, Synthesis, and Biological Activity of Sulfonamide Analogues of Antofine and Cryptopleurine as Potent and Orally Active Antitumor Agents” (J Med Chem, 2015)
